Measurements taken from patent US4864023A, “Pyrido(3,2,1-IJ)-1,3,4-benzoxadiazine derivatives” (priority 1988, dated 1989).
In brackets after ≈: the same amount, converted by molar mass. Where two headings read alike, the source gives them in different places.

Columns and labels:
Test in all cases: in vitro antibacterial activity, standard agar dilution method
Format in all cases: cell-based
[1] = system: Pseudomonas aeruginosa NR 2950; details: NR2950, aerobic, read-out: minimum inhibitory concentration (MIC)
[2] = system: Pseudomonas aeruginosa A3; details: aerobic, read-out: minimum inhibitory concentration (MIC)
[3] = system: Klebsiella pneumoniae FDA PCI 602; details: FDAPCI602, aerobic, read-out: minimum inhibitory concentration (MIC)
[4] = system: Bordetella bronchiseptica ATCC 4617; details: ATCC4617, aerobic, read-out: minimum inhibitory concentration (MIC)
[5] = system: Staphylococcus aureus FDA 209P JC-1; details: FDA209P, read-out: minimum inhibitory concentration (MIC)
[6] = system: Escherichia coli NIHJ JC-2; details: NIHJJC2, aerobic, read-out: minimum inhibitory concentration (MIC)
[7] = system: Bacillus subtilis PCI 219; details: PCI219, aerobic, read-out: minimum inhibitory concentration (MIC)
[8] = system: Enterococcus faecalis NR 2943; details: NR2943, aerobic, read-out: minimum inhibitory concentration (MIC)
[9] = system: Serratia marcescens IFO 12648; details: IFO12648, aerobic, read-out: minimum inhibitory concentration (MIC)
[10] = system: Staphylococcus aureus NR 2855
[11] = system: Proteus rettgeri ATCC 14505; details: Providencia rettgeri, ATCC14505, aerobic, read-out: minimum inhibitory concentration (MIC)
[12] = system: Alcaligenes faecalis IFO 13111; details: IFO13111, aerobic, read-out: minimum inhibitory concentration (MIC)
[13] = system: Enterobacter cloacae NR 2946; details: NR2946, aerobic, read-out: minimum inhibitory concentration (MIC)
[14] = system: Citrobacter freundii IFO 12681; details: IFO12681, aerobic, read-out: minimum inhibitory concentration (MIC)
[15] = system: Escherichia coli NR 2630; details: NR2630; Escherichia coli NR 2630; aerobic; agar dilution; read-out: minimum inhibitory concentration (MIC)
[16] = system: Staphylococcus aureus Smith; details: Staphylococcus aureus Smith; aerobic; agar dilution; read-out: minimum inhibitory concentration (MIC)
[17] = system: Staphylococcus epidermidis IFO 12993; details: IFO12993, aerobic, read-out: minimum inhibitory concentration (MIC)
[18] = system: Pseudomonas stutzeri IFO 12695; details: Stutzerimonas stutzeri, IFO12695, aerobic, read-out: minimum inhibitory concentration (MIC)
[19] = system: Enterobacter aerogenes NR 2945; details: Klebsiella aerogenes, NR2945, aerobic, read-out: minimum inhibitory concentration (MIC)
[20] = system: Staphylococcus epidermidis NR 2942; details: NR2942, aerobic, read-out: minimum inhibitory concentration (MIC)
[21] = system: Salmonella typhimurium IFO 12529; details: Salmonella enterica, aerobic, read-out: minimum inhibitory concentration (MIC)
[22] = system: Proteus vulgaris OX19 ATCC 6898; details: ATCC6898, aerobic, read-out: minimum inhibitory concentration (MIC)
[23] = Staphylococcus aureus FDA 209P JC-1, aerobic, agar dilution
[24] = NR2855, Staphylococcus aureus NR 2855, aerobic, agar dilution, read-out: minimum inhibitory concentration (MIC)

| Structure (SMILES) | MIC [1] [mg/L] | MIC [2] [mg/L] | MIC [3] [mg/L] | MIC [4] [mg/L] | MIC [6] [mg/L] | MIC [7] [mg/L] | MIC [8] [mg/L] | MIC [9] [mg/L] | MIC [11] [mg/L] | MIC [12] [mg/L] | MIC [13] [mg/L] | MIC [14] [mg/L] | MIC [16] [mg/L] | MIC [17] [mg/L] | MIC [18] [mg/L] | MIC [19] [mg/L] | MIC [20] [mg/L] | MIC [21] [mg/L] | MIC [22] [mg/L] | MIC [5, 23] [mg/L] | other results |
| --- | --- | --- | --- | --- | --- | --- | --- | --- | --- | --- | --- | --- | --- | --- | --- | --- | --- | --- | --- | --- | --- |
| CCN(C)CC1CCN(c2c(F)cc3c(=O)c(C(=O)O)cn4c3c2OCN4C)C1 (stereo not shown) [Example 48, 10-[3-[(ethylmethylamino)methyl]-1-pyrrolidinyl]-9-fluoro-3-methyl-7-oxo-2,3-dihydro-7H-pyrido-[3,2,1-ij]-1,3,4-benzoxadiazine-6-carboxylic acid] | 50 (≈ 124 µM) | 3.13 (≈ 7.74 µM) | 1.56 (≈ 3.86 µM) | 6.25 (≈ 15.5 µM) | 0.39 (≈ 0.964 µM) | 0.05 (≈ 0.124 µM) | 6.25 (≈ 15.5 µM) | 1.56 (≈ 3.86 µM) | 3.13 (≈ 7.74 µM) | 3.13 (≈ 7.74 µM) | 0.39 (≈ 0.964 µM) | 0.39 (≈ 0.964 µM) | 0.2 (≈ 0.495 µM) | 0.39 (≈ 0.964 µM) | 1.56 (≈ 3.86 µM) | 0.39 (≈ 0.964 µM) | 0.78 (≈ 1.93 µM) | 0.39 (≈ 0.964 µM) | 0.39 (≈ 0.964 µM) | – | MIC ([5]; Staphylococcus aureus): 0.39 mg/L (≈ 0.964 µM); MIC ([10]; Staphylococcus aureus, NR2855, read-out: minimum inhibitory concentration (MIC)): 0.39 mg/L (≈ 0.964 µM); MIC [15]: 0.1 mg/L (≈ 0.247 µM) |
| CN1COc2c(N3CCC(O)CC3)c(F)cc3c(=O)c(C(=O)O)cn1c23 [Example 13, 9-fluoro-10-(4-hydroxy-1-piperidyl)-3-methyl-7-oxo-2,3-dihydro-7H-pyrido[3,2,1-ij]-1,3,4-benzoxadiazine-6-carboxylic acid] | 6.25 (≈ 17.2 µM) | 1.56 (≈ 4.29 µM) | 0.78 (≈ 2.15 µM) | 0.78 (≈ 2.15 µM) | 0.39 (≈ 1.07 µM) | ≤ 0.0008 | 3.13 (≈ 8.61 µM) | 0.39 (≈ 1.07 µM) | 0.78 (≈ 2.15 µM) | 3.13 (≈ 8.61 µM) | 0.39 (≈ 1.07 µM) | 0.39 (≈ 1.07 µM) | 0.025 (≈ 0.0688 µM) | 0.1 (≈ 0.275 µM) | 0.1 (≈ 0.275 µM) | 0.2 (≈ 0.55 µM) | 0.05 (≈ 0.138 µM) | 0.1 (≈ 0.275 µM) | 0.05 (≈ 0.138 µM) | 0.1 (≈ 0.275 µM) | MIC [10, 24]: 0.05 mg/L (≈ 0.138 µM) |
| CN1COc2c(N3CCN(CCO)CC3)c(F)cc3c(=O)c(C(=O)O)cn1c23 [Example 15] | 3.13 (≈ 7.98 µM) | 0.78 (≈ 1.99 µM) | 0.39 (≈ 0.994 µM) | 0.78 (≈ 1.99 µM) | 0.1 (≈ 0.255 µM) | 0.05 (≈ 0.127 µM) | 6.25 (≈ 15.9 µM) | 0.39 (≈ 0.994 µM) | 0.78 (≈ 1.99 µM) | 3.13 (≈ 7.98 µM) | 0.1 (≈ 0.255 µM) | 0.05 (≈ 0.127 µM) | 0.39 (≈ 0.994 µM) | 0.78 (≈ 1.99 µM) | 0.05 (≈ 0.127 µM) | 0.05 (≈ 0.127 µM) | 0.78 (≈ 1.99 µM) | 0.05 (≈ 0.127 µM) | 0.025 (≈ 0.0637 µM) | 0.78 (≈ 1.99 µM) | MIC [10, 24]: 0.78 mg/L (≈ 1.99 µM) |

Now from value to compound, other results behind:

| MIC [1] [mg/L] | MIC [2] [mg/L] | MIC [3] [mg/L] | MIC [4] [mg/L] | MIC [6] [mg/L] | MIC [7] [mg/L] | MIC [8] [mg/L] | MIC [9] [mg/L] | MIC [11] [mg/L] | MIC [12] [mg/L] | MIC [13] [mg/L] | MIC [14] [mg/L] | MIC [16] [mg/L] | MIC [17] [mg/L] | MIC [18] [mg/L] | MIC [19] [mg/L] | MIC [20] [mg/L] | MIC [21] [mg/L] | MIC [22] [mg/L] | MIC [5, 23] [mg/L] | Structure (SMILES) | other results |
| --- | --- | --- | --- | --- | --- | --- | --- | --- | --- | --- | --- | --- | --- | --- | --- | --- | --- | --- | --- | --- | --- |
| 6.25 (≈ 17.2 µM) | 0.39 (≈ 1.08 µM) | 0.78 (≈ 2.15 µM) | 25 (≈ 69 µM) | 0.2 (≈ 0.552 µM) | 0.2 (≈ 0.552 µM) | 3.13 (≈ 8.64 µM) | 0.78 (≈ 2.15 µM) | 1.56 (≈ 4.31 µM) | 50 (≈ 138 µM) | 0.2 (≈ 0.552 µM) | 0.2 (≈ 0.552 µM) | 0.2 (≈ 0.552 µM) | 0.78 (≈ 2.15 µM) | – | 0.05 (≈ 0.138 µM) | 0.78 (≈ 2.15 µM) | 0.1 (≈ 0.276 µM) | 0.05 (≈ 0.138 µM) | 0.2 (≈ 0.552 µM) | CN1COc2c(N3CCC(N)CC3)c(F)cc3c(=O)c(C(=O)O)cn1c23 [Example 33] | MIC [10, 24]: 1.56 mg/L (≈ 4.31 µM); MIC [15]: 0.1 mg/L (≈ 0.276 µM) |
| 25 (≈ 63.7 µM) | 3.13 (≈ 7.98 µM) | 3.13 (≈ 7.98 µM) | 25 (≈ 63.7 µM) | 0.78 (≈ 1.99 µM) | 0.39 (≈ 0.994 µM) | 50 (≈ 127 µM) | 3.13 (≈ 7.98 µM) | 12.5 (≈ 31.9 µM) | 50 (≈ 127 µM) | 0.78 (≈ 1.99 µM) | 0.2 (≈ 0.51 µM) | 1.56 (≈ 3.98 µM) | 6.25 (≈ 15.9 µM) | 0.2 (≈ 0.51 µM) | 0.2 (≈ 0.51 µM) | 6.25 (≈ 15.9 µM) | 0.39 (≈ 0.994 µM) | 0.2 (≈ 0.51 µM) | 1.56 (≈ 3.98 µM) | CN1CCN(c2c(F)cc3c(=O)c(C(=O)O)cn4c3c2OC(CO)N4C)CC1 (stereo not shown) [Example 27] | MIC [10, 24]: 12.5 mg/L (≈ 31.9 µM) |
